# Experimental data taken from patent publication US11879848B2, “Graphene-based multi-modal sensors” (The Regents of the University of California, priority 2015, dated 2024).
# Tested on: neonatal rat cardiomyocytes (CM)
# Test: cardiomyocyte contractions registered by PMMA/AuNI/graphene strain sensor in electrophysiological chamber
# Type: cell-based
# Settings: 10 μM blebbistatin in the solution around the cells; CM culture on PMMA/AuNI/graphene; room temperature
# Experimental: The graphene/metal nanoisland composite film structures can also be deployed in biological settings. For example, the performance of graphene/AuNI sensors in biological settings is tested by culturing neonatal rat cardiomyocytes (CM) on coverslips that are coated with a composite polymethylmethacrylate (PMMA)/AuNI/graphene film structure.
# Using a specialized chamber shown in FIG. 4c and detailed below, reversible changes in the sensor signal that correlated with the spontaneous activity of cardiomyocytes can be detected, as shown in FIG. 4d.
# An excitation-contraction uncoupler such as blebbistatin, that inhibits myosin cycling and stops the contractions of the cells, but not the electrical activity, can be used to distinguish whether the signal detected by the strain sensor was related to the contractile or electrical activity of the cells.
# Electrophysiology. Neonatal rat ventricular cardiomyocytes were isolated using the neonatal rat cardiomyocyte isolation kit (Worthington) and cultured at 37° C. with 5% CO2. In brief, ventricles were dissected from 1 d-old Hsd:SD rats (Sprague Dawley), then digested overnight at 4° C. with trypsin. Digestion continued the following morning with collagenase for approximately 60 min at 37° C. […]
smiles,measurement,value
Cc1ccc2c(c1)C(=O)C1(O)CCN(c3ccccc3)C1=N2 (stereo not shown) [blebbistatin],modulations of the sensor signal (contractions of the cells),No noticeable modulations of the signal
